Results on 4 molecules are retold here after patent US5026699A, “Use of 5,11-dihydro-6H-pyrido[2,3-b][1,4]-benzodiazepin-6-ones substituted in the 11-position for treating bradycardia and bradyarrhythmia in human and veterinary medicine” (Dr. Karl Thomae GmbH, priority 1988, dated 1991).

Assay [1] has as its system acetylcholine effect on bladder contraction. In words: Inhibition of the effect of acetylcholine on the bladder in guinea pigs. The class given is in vivo, guinea pig. The note with it: Cavia porcellus, 5 min; read-out: -log ED50, Bladder (converted). As for the experimental part:
(§1) 5 minutes after the administration of the test substance, 10 microgram/kg of acetylcholine were simultaneously injected intravenously and intra-arterially into anesthetized guinea pigs. The heart rate was recorded directly by extracorporeal derivation of the ECG, the expiration resistance according to Konzett-Rossler and contraction of the exposed bladder. In order to determine the inhibition of the acetylcholine activity on the organs under investigation, dosage/activity curves were recorded and from them -log ED50 values were determined.

In assay [2] the test system is acetylcholine effect on heart rate. Nature of the assay: Inhibition of the effect of acetylcholine on heart rate in guinea pigs. The class given is in vivo, guinea pig. Particulars: Cavia porcellus, 5 min; read-out: -log ED50, Heart (converted). Here is the method: as §1
The subject of another assay is vagal bradycardia (M2). In words: M1/M2 selectivity in the rat: reduction of bradycardia caused by vagus stimulation. The note with it: iv, 5 min, male THOM rats, i.v., dose reducing vagal bradycardia (M2) by 50%, 5 minutes after injection, read-out: -log ED50, Heart (converted). It counts as in vivo. Here is the method:
(§2) The dosage of the substances which reduced either the vagal bradycardia (M2) or the rise in blood pressure (M1) by 50% was determined graphically. For the results see Table II.

Assay [3] deals with rise in blood pressure caused by McN-A-343 (M1). Nature of the assay: M1/M2 selectivity in the rat: reduction of rise in blood pressure caused by McN-A-343. The class given is in vivo. The note with it: iv, 5 min, male THOM rats, i.v., dose reducing rise in blood pressure (M1) caused by 0.3 mg/kg McN-A-343 by 50%, read-out: -log ED50, Blood pressure (converted). As for the experimental part: as §2

In assay [4] the test system is acetylcholine effect on bronchi (expiration resistance). Nature of the assay: Inhibition of the effect of acetylcholine on bronchi in guinea pigs. The note with it: Cavia porcellus, 5 min; read-out: -log ED50, Bronchi (converted). The class given is in vivo, guinea pig. As for the experimental part: as §1
The target in assay [5] is T1, muscarinic receptors, heart (Rattus norvegicus, UniProt P10980).
T1 construct: The whole heart was cut up with scissors; from tissue; host or cells: whole heart of male Sprague-Dawley rats, homogenate
T1 sequence (P10980 1-466): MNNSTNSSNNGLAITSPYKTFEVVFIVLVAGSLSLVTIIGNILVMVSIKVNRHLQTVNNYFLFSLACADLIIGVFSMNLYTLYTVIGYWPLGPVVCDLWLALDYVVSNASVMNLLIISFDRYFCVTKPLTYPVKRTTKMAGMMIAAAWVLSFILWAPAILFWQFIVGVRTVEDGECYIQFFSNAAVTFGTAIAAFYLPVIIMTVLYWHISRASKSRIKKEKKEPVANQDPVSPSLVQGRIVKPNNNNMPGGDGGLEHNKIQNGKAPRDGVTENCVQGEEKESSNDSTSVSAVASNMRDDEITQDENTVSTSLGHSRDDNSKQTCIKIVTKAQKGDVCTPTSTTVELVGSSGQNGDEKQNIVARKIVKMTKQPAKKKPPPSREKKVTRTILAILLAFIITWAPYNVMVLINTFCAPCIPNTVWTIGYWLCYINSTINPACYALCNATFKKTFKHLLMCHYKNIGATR
In words: Receptor binding test in vitro, 3H-NMS displacement, whole heart homogenate. The note with it: rat whole heart homogenate 1:400; 0.3 nanomolar 3H-NMS; 30° C., 45 minutes; read-out: Receptor Binding Tests IC50, Heart. As for the experimental part:
(§3) The organs were donated by male Sprague-Dawley rats weighing 180-220 g. After the heart and submandular gland and cerebral cortex had been removed, all other steps were carried out in ice cold Hepes HCl buffer (pH 7.4; 100 millimolar NaCl, 10 millimolar MgCl2). The whole heart was cut up with scissors. All the organs were then homogenized in a Potter apparatus.
(§4) For the binding test the homogenized organs were diluted as follows:
(§5) The homogenized organs were incubated at a certain concentration of the radioligand and at a series of concentrations of the non-radioactive test substances in an Eppendorf centrifuge tube at 30° C. Incubation lasted 45 minutes. The radioligand used was 0.3 nanomolar ^3 H--N- methylscopolamine (^3 H-NMS). Incubation was ended by the addition of ice cold buffer followed by vacuum filtration. The filters were rinsed with cold buffer and their radioactivity was determined. It represents the sum of specific and non-specific binding of ^3 H-NMS. The proportion of non-specific binding was defined as the radioactivity which was bound in the presence of 1 micromolar quinuclidinylbenzylate. Each measurement was taken four times. The IC50 values of the non-labelled test substances were determined graphically. They represent that concentration of test substance at which the specific binding of ^3 H-NMS to the muscarinic receptors in the various organs was inhibited by 50%.

Assay [6] deals with secretion of saliva initiated by pilocarpine. In words: Salivation-inhibiting effect in the rat (pilocarpine-induced). Particulars: iv, male THOM rats anesthetized with urethane, i.v., dose reducing volume of saliva by 50%, 2 mg/kg s.c. pilocarpine, read-out: -log ED50, Salivation inhibition (converted). The class given is in vivo. As for the experimental part: The secretion of saliva was initiated by subcutaneous administration of 2 mg/kg of pilocarpine. The saliva was absorbed with blotting paper and the surface area covered was measured every 5 minutes by planimetry. The dosage of the substance which reduced the volume of saliva by 50% was determined graphically. For the results see Table II.

The target in assay [7] is muscarinic receptors, cerebral cortex. In words: Receptor binding test in vitro, 3H-NMS displacement, cerebral cortex homogenate. The note with it: rat cerebral cortex homogenate 1:3000; 0.3 nanomolar 3H-NMS; 30° C., 45 minutes; read-out: Receptor Binding Tests IC50, Cortex. Here is the method:
as §3, §4, §5

Assay [8] addresses T2, muscarinic receptors, submandibular gland (Rattus norvegicus, UniProt P08483).
T2 construct: All the organs were then homogenized in a Potter apparatus; from tissue; host or cells: submandibular gland of male Sprague-Dawley rats, homogenate
In words: Receptor binding test in vitro, 3H-NMS displacement, submandibular gland homogenate. The note with it: rat submandibular gland homogenate 1:400; 0.3 nanomolar 3H-NMS; 30° C., 45 minutes; read-out: Receptor Binding Tests IC50, Submandibular gland. As for the experimental part: as §3, §4, §5

T2 sequence (P08483 whole entry): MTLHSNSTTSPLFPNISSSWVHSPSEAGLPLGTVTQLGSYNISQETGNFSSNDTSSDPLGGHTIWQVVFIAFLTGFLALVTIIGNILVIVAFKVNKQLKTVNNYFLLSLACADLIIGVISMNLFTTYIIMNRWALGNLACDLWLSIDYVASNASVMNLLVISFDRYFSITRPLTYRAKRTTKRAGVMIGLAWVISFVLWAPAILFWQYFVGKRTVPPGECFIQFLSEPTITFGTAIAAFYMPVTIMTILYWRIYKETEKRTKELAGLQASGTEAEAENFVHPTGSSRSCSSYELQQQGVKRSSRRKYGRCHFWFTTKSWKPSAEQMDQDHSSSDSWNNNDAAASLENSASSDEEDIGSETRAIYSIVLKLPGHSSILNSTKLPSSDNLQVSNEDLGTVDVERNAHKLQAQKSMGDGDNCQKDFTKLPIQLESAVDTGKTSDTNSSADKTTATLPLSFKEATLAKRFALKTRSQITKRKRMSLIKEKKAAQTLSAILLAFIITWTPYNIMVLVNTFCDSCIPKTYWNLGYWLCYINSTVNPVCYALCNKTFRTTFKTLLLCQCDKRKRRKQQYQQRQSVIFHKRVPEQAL

By ED50 is commonly meant the dose that gives a 50% effect, or the effect in half of the subjects. For `CN1[C@@H]2CC[C@H]1C[C@@H](OC(=O)C(CO)c1ccccc1)C2` (stereo partly drawn) [E, atropine, reference compound], the ED50 in [1] is 0.0933 µmol/kg; in assay [2], 0.02 µmol/kg; in the assay on vagal bradycardia (M2), 0.0115 µmol/kg; in assay [3], 0.0457 µmol/kg.

For `CN1CCCC1CCNCC(=O)N1c2ccccc2C(=O)Nc2cccnc21` (stereo not drawn) [A, 5,11-dihydro-11-[[[2-(1-methyl-2-pyrrolidinyl)ethyl]amino]acetyl]-6H-pyrido[2,3-b][1,4]benzodiazepin-6-one], the ED50 in assay [4] is 0.102 µmol/kg; in assay [1] it was 0.537 µmol/kg; in assay [2], 0.0977 µmol/kg.

By IC50 is commonly meant the concentration that gives 50% inhibition. As to `CCN1CCCC1CN(C)CC(=O)N1c2ccccc2C(=O)Nc2cccnc21` (stereo not drawn) [B, 5,11-dihydro-11-[[[(1-ethyl-2-pyrrolidinyl)methyl]methylamino]acetyl]-6H-pyrido[2,3-b][1,4]benzodiazepin-6-one], the ED50 in [4] was 0.0347 µmol/kg; in assay [1], 1.17 µmol/kg; in assay [2], 0.0457 µmol/kg; in assay [6], 0.813 µmol/kg; in the assay with vagal bradycardia (M2), 0.00741 µmol/kg; in [3], 0.141 µmol/kg. In addition, the values for the IC50 in assay [5], in assay [7] and in assay [8] were 6 nM, 30 nM and 50 nM, respectively.

As to `CCN(CC)CC1CCCCN1CC(=O)N1c2ccccc2C(=O)Nc2cccnc21` (stereo not drawn) [C, 11-[[2-[(diethylamino)methyl]-1-piperidinyl]acetyl]-5,11-dihydro-6H-pyrido[2,3-b][1,4]benzodiazepin-6-one, reference compound], the ED50 in [6] is 10 µmol/kg; in the assay with vagal bradycardia (M2) it was 0.38 µmol/kg.
